ChEMBL document CHEMBL5579901, “Discovery of Novel [1,2,4]Triazolo[1,5-a]pyrimidine Derivatives as Novel Potent S-Phase Kinase-Associated Protein 2 (SKP2) Inhibitors for the Treatment of Cancer” (J Med Chem, 2024)
The source made the active and inactive calls. The calls are words filed in the database; no cut-off is given here.

Legend:
[1] = MRT(infinity) in Sprague-Dawley rat at 50 mg/kg, po measured upto 24 hrs by LC/MS-MS analysis; assay type: ADME, organism-based; conditions: in vivo
PC-3 [2] = test: Inhibition of colony formation in human PC-3 cells incubated for 10 days by crystal violet staining based inverted microscopic analysis; assay type: functional, cell-based; conditions: dose 1-3 µM, time 10.0 day
PC-3 [3] = test: Induction of cell cycle arrest in human PC-3 cells assessed as cells at G2/M phase at 15 uM incubated for 12 hrs by PI staining based flow cytometry (reference value: 21.4%); assay type: functional
MGC-803 [4] = test: Antitumor activity against human MGC-803 cells xenografted in NOD-SCID mouse assessed as tumor growth inhibition at 50 mg/kg, IG administered for 21 days; assay type: functional; conditions: MGC-803, po, 504 h, time 21 day, read-out: TGI
PC-3 [5] = test: Induction of cell cycle arrest in human PC-3 cells assessed as cells at S phase at 15 uM incubated for 48 hrs by PI staining based flow cytometry (reference value: 22.9%); assay type: functional
MGC-803 [6] = test: Upregulation of p27 protein expression in human MGC-803 cells at 15 uM by Western blotting analysis; assay type: functional, cell-based; conditions: time 6-48 hrs, TDE = time-dependent effect
[7] = target: S-phase kinase-associated protein 2 (Homo sapiens) (UniProt Q13309); test: Binding affinity to SKP2 in human MGC-803 cells assessed as increase in thermal stability at 57 to 68 degreeC incubated for 4 hrs by CETSA; assay type: cell-based
S-phase kinase-associated protein 2 (Homo sapiens), sequence (Q13309 whole entry): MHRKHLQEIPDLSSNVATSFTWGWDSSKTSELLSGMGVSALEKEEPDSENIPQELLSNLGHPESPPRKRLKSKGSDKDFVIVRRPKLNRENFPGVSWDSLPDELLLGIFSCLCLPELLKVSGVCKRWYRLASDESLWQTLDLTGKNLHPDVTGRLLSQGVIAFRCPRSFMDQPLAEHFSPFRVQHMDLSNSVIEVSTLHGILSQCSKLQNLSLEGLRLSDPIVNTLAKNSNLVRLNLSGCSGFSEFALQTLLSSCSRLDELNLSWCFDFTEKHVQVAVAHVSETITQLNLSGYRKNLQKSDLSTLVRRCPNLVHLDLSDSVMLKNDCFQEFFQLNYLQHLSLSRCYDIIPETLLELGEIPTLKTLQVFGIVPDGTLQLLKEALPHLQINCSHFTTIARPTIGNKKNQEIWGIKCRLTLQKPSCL

PC-3 [8] = test: Upregulation of p27 protein expression in human PC-3 cells at 15 uM by Western blotting analysis; assay type: functional, cell-based; conditions: time 6-48 hrs, TDE = time-dependent effect
MGC-803 [9] = test: Induction of cell cycle arrest in human MGC-803 cells assessed as cells at G2/M phase at 15 uM incubated for 36 hrs by PI staining based flow cytometry (reference value: 20.6%); assay type: functional
PC-3 [10] = test: Induction of cell cycle arrest in human PC-3 cells assessed as cells at S phase at 5 uM incubated for 36 hrs by PI staining based flow cytometry (reference value: 22.8%); assay type: functional
[11] = target: Cyclin-dependent kinases regulatory subunit 1/S-phase kinase-associated protein 2 (Homo sapiens, UniProt Q13309); test: Inhibition of GST-tagged SKP2 (unknown origin) binding to His6-tagged CKS1 (unknown origin) preincubated with SKP2 for 10 mins followed by CKS1 addition for 20 mins and measured after by HTRF method; assay type: protein assay
Cyclin-dependent kinases regulatory subunit 1/S-phase kinase-associated protein 2, sequence (P61024 whole entry): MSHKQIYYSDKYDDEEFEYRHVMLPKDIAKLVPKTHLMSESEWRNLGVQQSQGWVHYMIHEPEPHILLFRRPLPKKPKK
Cyclin-dependent kinases regulatory subunit 1/S-phase kinase-associated protein 2, sequence (Q13309 whole entry): as the sequence (Q13309 whole entry) above

MGC-803 [12] = test: Induction of cell cycle arrest in human MGC-803 cells assessed as cells at G2/M phase at 15 uM incubated for 6 hrs by PI staining based flow cytometry (reference value: 20.8%); assay type: functional
MGC-803 [13] = test: Induction of cell cycle arrest in human MGC-803 cells assessed as cells at G2/M phase at 7.5 uM incubated for 36 hrs by PI staining based flow cytometry (reference value: 20.6%); assay type: functional
PC-3 [14] = test: Induction of cell cycle arrest in human PC-3 cells assessed as cells at S phase at 15 uM incubated for 24 hrs by PI staining based flow cytometry (reference value: 22.9%); assay type: functional
MGC-803 [15] = test: Induction of cell cycle arrest in human MGC-803 cells assessed as cells at S phase at 5 uM incubated for 36 hrs by PI staining based flow cytometry (reference value: 18.2%); assay type: functional
MGC-803 [16] = test: Induction of cell cycle arrest in human MGC-803 cells assessed as cells at S phase at 15 uM incubated for 12 hrs by PI staining based flow cytometry (reference value: 19.6%); assay type: functional
MGC-803 [17] = test: Inhibition of DNA synthesis in human MGC-803 cells incubated for 24 hrs by EdU staining based fluorescence microscopic analysis; assay type: functional, cell-based; conditions: dose 2.5-7.5 µM
MGC-803 [18] = test: Induction of cell cycle arrest in human MGC-803 cells assessed as cells at G0/G1 phase at 15 uM incubated for 12 hrs by PI staining based flow cytometry (reference value: 57.9%); assay type: functional

COc1ccc(-c2cc(C)nc3nc(SCc4ccc(Br)cc4)nn23)c(OC)c1
MRT inf [1]: 10.2 h
inhibition (PC-3 [2]): Dose-Dependent Effect
Activity (PC-3 [3]): 18.5%
inhibition in vivo at 50 mg/kg (MGC-803 [4]): 76.9%
Activity (PC-3 [5]): 39.8%
Activity (MGC-803 [6]): Tde
Activity [7]: Active
Activity (PC-3 [8]): Tde
Activity (MGC-803 [9]): 14.4%
Activity (PC-3 [10]): 28.1%
IC50 [11]: 4.86 µM
Activity (MGC-803 [12]): 21.9%
Activity (MGC-803 [13]): 18.7%
Activity (PC-3 [14]): 38.6%
Activity (MGC-803 [15]): 26.9%
Activity (MGC-803 [16]): 31.2%
inhibition (MGC-803 [17]): Dose-Dependent Effect
Activity (MGC-803 [18]): 44%
